# According to patent US9453008B2, “Antithrombotic and antiatherosclerotic agent and method for producing same (variants)” (PROTON OOO, priority 2011, dated 2016):
# How the values were obtained:
# [1] = tested on: pressor effect of angiotensin I; experiment: Pressor effect of angiotensin I after intravenous administration in normotensive narcotized rats; format: in vivo, rat
# Description: (§1) The experiments were performed on spontaneously hypertensive (SHT) and normotensive (NT) narcotized male rats using intravenous administration of the tested compounds. The ability of the compound to reduce arterial blood pressure (BP) in SHT rats and prevent spasmogenic reactions to noradrenalin (NA) and angiotensin I (AI).
# (§2) The effects of the compound of formula I on the pressor effects of noradrenaline (NA, 10-15 μg/kg), mesatonum (M, 5 μg/kg) and angiotensin (AI, 5 μg/kg) were studied on normotensive narcotized […]. Antihypertensive action of the compound of formula I was assessed relative to the pressor effects of the control administration of the aforementioned compounds.
# Acute toxicity (LD50) = format: in vivo; details: mouse, in vivo, other: internal administration
# From the text: (§3) Acute toxicity of the compound in mice in internal administration is 8.9±0.75 g/kg, cumulation after 28 days administration is weak (lethality less than 50%).
# mice = experiment: Acute toxicity (LD50); format: in vivo; details: mice, internal administration
# From the text: as §3
# [2] = tested on: platelet aggregation induced by arachidonic acid; experiment: Platelet aggregation induced by arachidonic acid following peroral administration in rabbits; format: in vivo, rabbit
# Description: FIG. 3 is a graph showing the changes in platelet aggregation, induced by arachidonic acid, following peroral administration of the compound I in rabbits (% compared to control).
# (§4) Antiplatelet activity was assessed by the effect of the compound on platelet aggregation of rabbit blood plasma, induced by ADP (adenosine diphosphate) and arachidonic acid. Platelet aggregation was assessed by the change of optical density of plasma. Studies were performed using both intravenous administration, in comparison with sodium nitroprusside, and oral administration, in comparison with acetylsalicylic acid. Compound I was used in concentrations of 10^−3-10^−7 M (parenteral administration) and in 4-8 and 12 mg/kg doses (oral administration).
# Using arachidonic acid (AA) as an aggregation inductor, the experiments were performed in conditions of oral administration. We consider such experimentation justified by the possibility of different routes of administration for the tested compound, not only intravenous one (unlike sodium nitroprusside).
# [3] = target: T1, soluble guanylate cyclase of human platelets (Homo sapiens, UniProt Q02108+Q02153); experiment: Specific activity of soluble guanylate cyclase of human platelets; format: biochemical; design: Activation: unit: % of initial activity
# T1 construct: soluble guanylate cyclase of human platelets; from tissue; host or cells: human platelets
# T1 sequence (Q02153 1-619): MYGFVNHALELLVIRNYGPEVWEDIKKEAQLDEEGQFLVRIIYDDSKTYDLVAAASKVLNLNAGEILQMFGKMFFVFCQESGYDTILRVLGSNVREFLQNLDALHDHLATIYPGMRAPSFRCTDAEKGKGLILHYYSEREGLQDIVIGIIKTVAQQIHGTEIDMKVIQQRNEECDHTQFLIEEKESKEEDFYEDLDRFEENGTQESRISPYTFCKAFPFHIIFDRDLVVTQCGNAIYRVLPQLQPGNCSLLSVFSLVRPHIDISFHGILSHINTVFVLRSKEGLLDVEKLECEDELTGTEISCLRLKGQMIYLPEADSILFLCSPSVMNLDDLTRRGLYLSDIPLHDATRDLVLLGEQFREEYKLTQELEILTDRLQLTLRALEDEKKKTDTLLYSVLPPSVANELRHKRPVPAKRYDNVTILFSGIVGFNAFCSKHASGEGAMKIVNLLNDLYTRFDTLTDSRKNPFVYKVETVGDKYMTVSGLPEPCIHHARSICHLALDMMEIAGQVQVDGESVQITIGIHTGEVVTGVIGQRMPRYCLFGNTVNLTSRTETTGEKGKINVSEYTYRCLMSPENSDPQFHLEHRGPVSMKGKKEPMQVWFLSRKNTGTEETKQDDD
# T1 sequence (Q02108 1-690): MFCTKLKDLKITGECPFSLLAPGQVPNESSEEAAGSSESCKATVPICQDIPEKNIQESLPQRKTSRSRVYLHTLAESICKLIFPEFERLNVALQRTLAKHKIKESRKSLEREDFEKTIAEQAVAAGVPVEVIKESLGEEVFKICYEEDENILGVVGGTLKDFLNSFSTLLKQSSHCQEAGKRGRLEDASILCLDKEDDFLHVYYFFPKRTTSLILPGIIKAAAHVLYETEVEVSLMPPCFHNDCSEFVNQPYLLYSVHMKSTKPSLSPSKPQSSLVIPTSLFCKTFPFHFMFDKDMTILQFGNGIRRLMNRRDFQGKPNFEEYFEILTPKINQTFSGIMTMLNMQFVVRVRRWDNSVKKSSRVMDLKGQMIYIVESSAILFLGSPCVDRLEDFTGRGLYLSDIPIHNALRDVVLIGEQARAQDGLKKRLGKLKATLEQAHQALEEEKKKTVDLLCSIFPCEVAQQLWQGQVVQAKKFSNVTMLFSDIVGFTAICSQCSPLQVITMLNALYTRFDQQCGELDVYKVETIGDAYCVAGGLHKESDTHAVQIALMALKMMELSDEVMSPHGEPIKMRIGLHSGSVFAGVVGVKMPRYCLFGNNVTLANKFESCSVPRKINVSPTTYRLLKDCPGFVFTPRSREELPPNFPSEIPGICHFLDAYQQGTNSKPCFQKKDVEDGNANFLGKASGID
# [4] = tested on: ADP-induced platelet aggregation; experiment: ADP-induced platelet aggregation following peroral administration in rabbits; format: in vivo, rabbit
# Description: FIG. 2 is a graph showing the changes in platelet functional activity following peroral administration of the compound I in a model of ADP-induced aggregation in rabbits (% compared to control).
# as §4
# [5] = tested on: pressor action of mesatonum; experiment: Pressor effect of mesatonum in normotensive narcotized animals; format: in vivo; details: doses 0.01-1.0 mg/kg; mesatonum 5 μg/kg
# Description: as §2
# [6] = tested on: pressor effect of noradrenaline; experiment: Pressor effect of noradrenaline after intravenous administration in normotensive narcotized rats; format: in vivo, rat
# Description: as §1, §2
smiles,measurement,setting,value
"CN1CC(CO)O/C1=C(C#N)/C=C1/Nc2ccccc2C1=O (stereo not drawn) [Compound I, 2-[2-Cyano-2-[5-(hydroxymethyl)-3-methyl-1,3-oxazolidin-2-ylidene]ethylidene]indolin-3-one]",Inhibition of pressor reaction (%) induced by Angiotensin I,"[1]; 0.01 mg/kg intravenous, 0 - absence of effect",0%
same,Inhibition of pressor reaction (%) induced by Angiotensin I,[1]; 0.05 mg/kg intravenous,10%
same,Inhibition of pressor reaction (%) induced by Angiotensin I,"[1]; 0.1 mg/kg intravenous, listed as Compound of formula I",25-30%
same,Inhibition of pressor reaction (%) induced by Angiotensin I,"[1]; 0.1 mg/kg intravenous, listed as compound of formula I",25%
same,Inhibition of pressor reaction (%) induced by Angiotensin I,"[1]; 0.5 mg/kg intravenous, 0 - absence of effect",30%
same,Inhibition of pressor reaction (%) induced by Angiotensin I,[1]; 1.0 mg/kg intravenous,30-40%
same,LD50,Acute toxicity (LD50),8900 mg/kg
same,Acute toxicity,mice,8.9 ± 0.75 g/kg
same,Effect on platelet aggregation (statistically significant),[2]; after 2 hours (inductor not restated),32%
same,Effect on platelet aggregation,[2]; at 4 hour (inductor not restated),38%
same,Effect on platelet aggregation (as a tendency),[2]; end of the first hour (inductor not restated),up to 10%
same,Reduction of platelet aggregation induced by arachidonic acid,"[2]; oral, rabbits, 1 hour after the administration",reduced by a third
same,Action of AA at the end of the observation period,"[2]; oral, rabbits, 4 hours",comparable to the control
same,Inhibition of the action of the inductor (AA),"[2]; oral, rabbits, after 2 hour",by over two times
same,Duration of effect on AA-induced aggregation,[2]; per os,2 to 4 h
same,Activation of soluble guanylate cyclase (in words),[3],approaches that of L-arginine
same,average degree of activation of the enzyme,[3]; 0.1 mM concentration,2.12 times
same,"Activation, Mean M ± m","[3]; 0.1 mmol, mean of 5 samples",212 ± 67
same,"Specific activity of GC, Mean M ± m","[3]; 0.1 mmol, mean of 5 samples (initial 174 ± 33)",342 ± 86 pmol cGMP/min/mg protein
same,Activation,"[3]; 0.1 mmol, sample number 1",446
same,Specific activity of GC,"[3]; 0.1 mmol, sample number 1 (initial 133)",593 pmol cGMP/min/mg protein
same,Activation,"[3]; 0.1 mmol, sample number 2",153
same,Specific activity of GC,"[3]; 0.1 mmol, sample number 2 (initial 235)",450 pmol cGMP/min/mg protein
same,Activation,"[3]; 0.1 mmol, sample number 3",146
same,Specific activity of GC,"[3]; 0.1 mmol, sample number 3 (initial 100)",146 pmol cGMP/min/mg protein
same,Activation,"[3]; 0.1 mmol, sample number 4",189
same,Specific activity of GC,"[3]; 0.1 mmol, sample number 4 (initial 140)",265 pmol cGMP/min/mg protein
same,Activation,"[3]; 0.1 mmol, sample number 5",122
same,Specific activity of GC,"[3]; 0.1 mmol, sample number 5 (initial 211)",256 pmol cGMP/min/mg protein
same,Duration of effect on ADP-induced aggregation,[4]; enteral administration,about 3 hours
same,Inhibition of ADP-induced aggregation (maximal potency),"[4]; peroral, rabbits, after 2 hours",40%
same,Inhibition of ADP-induced aggregation,"[4]; peroral, rabbits, after the first hour",30%
same,Inhibition of ADP-induced aggregation (as a tendency),"[4]; peroral, rabbits, persisting for all 4 hours of observation",15-25%
same,Effect on the pressor action of M (mesatonum),[5],does not significantly affect
same,Inhibition of pressor reaction (%) induced by Noradrenaline,[6]; 0.01 mg/kg intravenous,25%
same,Inhibition of pressor reaction (%) induced by Noradrenaline,[6]; 0.05 mg/kg intravenous,35%
same,Inhibition of pressor reaction (%) induced by Noradrenaline,[6]; 0.1 mg/kg intravenous,50%
same,Inhibition of pressor reaction (%) induced by Noradrenaline,[6]; 0.5 mg/kg intravenous,60%
same,Inhibition of pressor reaction (%) induced by Noradrenaline,[6]; 1.0 mg/kg intravenous,55-60%
